Results published in US6347239B1, “Method of evaluating the efficacy of drug on brain nerve cells” (priority 1998, dated 2002).
Several values for one entry are separate records, joined by “and”; a condition that tells them apart may be missing. Equal values may be shown once.

Tests used:
[1] = system: primary motor cortex of patients with ALS; assay: Proton MRSI of NAA/Cr in the motor cortex of ALS patients, paired scans; assay type: in vivo, human
Description: Nineteen patients with a diagnosis of definite or probable ALS, as per the El Escorial Criteria, ^12 were recruited. Each patient underwent paired MRSI examinations. […] Thus, closely paired MRSIs were obtained off medication in 12 subjects who formed a disease control group ALS-C.
Brain proton spectroscopy was performed using a Philips Gyroscan ACS3 operating at 1.5 Tesla (Philips Medical System, Best, The Netherlands). After axial and sagittal scout images and sagittal T1-weighted images were obtained, axial T1-weighted images were acquired with an angulation determined from sagittal T1-weighted images such that the transverse plane was perpendicular to the rostral-caudal axis of the precentral gyrus. These transverse scans were used to select a volume of interest (VOI) centered on the central sulcus, high in the cranium comprised of predominantly cortical brain (FIG. 1A). Cranio-caudal (CC) thickness was 20 mm. Anteroposterior (AP) and left-right (LR) dimensions were adjusted for each patient depending on the skull size and shape to maximize size without including skull. MRSI was performed using a 90°-180°−180° (PRESS) sequence (TR=1750, TE=272, 250×250 mm FOV, 32×32 phase-encoding steps) with prior suppression of water by selective excitation. One patient had all their scans performed with TR=1500. The ROI was repositioned in the identical location in follow up scans of each patient.
Post-processing of data, included a mild Gaussian filter and an inverse two-dimensional Fourier transform of both the water-suppressed and -unsuppressed ^1H-MRS. This was accomplished with XUNSPEC1 software (Philips Medical Systems Best, The Netherlands) running on a Sun SPARC™ station.
The residual water signal was removed using the HSVD (Hankel Singular-Value Decomposition) algorithm which models the time-domain ^1H-MRS data in each voxel with exponentially damped sinusoids. Peaks used to model the water signal were then subtracted from the original data. This algorithm is fully automatic and requires no prior knowledge or operator intervention.
Automated calculation of metabolite peak areas was performed on operator-selected voxels within the motor cortex. Peaks were digitally integrated to yield areas. These values were normalized by dividing them by that of Cr.
The NAA/Cr of the primary motor cortex was determined by averaging the NAA/Cr intensities of voxels located in the precentral gyrus of both hemispheres (FIGS. 1A and 1B). The difference in motor cortex NAA/Cr between two scans (ΔNAA/Cr) obtained approximately 3 weeks apart was determined for each ALS patient in the treated (ALS-R) and control (ALS-C) groups. ΔNAA/Cr was compared between the treated and control groups using a two-sample two-sided Student's t-test. In addition, a two-sided paired Student's t-test was used to evaluate the significance of […] within each group.

patients with ALS = assay: Clinical status and muscle strength (MRC grades) of ALS patients during therapy; assay type: in vivo, human
Source text: Deltoid and iliopsoas MRC grades improved bilaterally from 4 to 4+.
Several patients agreed to longer term follow up studies. […] Patient #17 was never treated: NAA/Cr decreased from 2.51 to 2.42 after 21 days and further to 2.11 4 months later; their symptoms progressed slowly.

Compound: Nc1nc2ccc(OC(F)(F)F)cc2s1 [RILUZOLE, 2-amino-6-trifluoromethoxy-benzothiazole]
- average NAA/Cr for the group after therapy ([1]; 11 patients (ALS-R), 24±8 days after initiating therapy, increased from 2.14±0.26, mean±SD, p=0.044): 2.27±0.24
- ΔNAA/Cr = Change in NAA/Cr between MRSI scan #1 and #2 ([1]; ALS-R group, scan just before treatment vs approximately three weeks after starting 50 mg bid, individual patients 1-11 and group mean (n = 11)): −0.011 and 0.111 and 0.438 and 0.295 and 0.118 and 0.234 and −0.021 and −0.251 and 0.222 and 0.290 and 0.034
- NAA/Cr MRSI #2 (NAA/Cr of motor cortex) ([1]; ALS-R group, second scan approximately three weeks after starting 50 mg bid, individual patients 1-11 and group mean (n = 11)): 2.508 and 2.643 and 2.442 and 2.416 and 2.423 and 2.291 and 1.890 and 2.083 and 2.247 and 1.969 and 2.053
- change in NAA/Cr for the treated group with respect to the untreated group (increase) ([1]; ALS-R vs ALS-C, approximately 3 weeks, mean±SE, p=0.008): 0.22±0.095
- NAA/Cr ([1]; patient #2, after 35 days of therapy, from 2.53): 2.64
- NAA/Cr ([1]; patient #2, three months later than the 35-day scan): 2.74
- NAA/Cr ([1]; patient #3, after 18 days of therapy, from 2.00): 2.44
- NAA/Cr ([1]; patient #3, three months later than the 18-day scan): 1.46
- NAA/Cr ([1]; patient #5, after 21 days of therapy, from 2.24): 2.31
- NAA/Cr ([1]; patient #5, one year later): 2.42
- signal from NAA in the motor cortex ([1]; patients with ALS, acute (within 3 weeks) after treatment): increase
- clinical status (patients with ALS; patient #2, three months after the 35-day scan): increased strength and fewer cramps
- clinical status (patients with ALS; patient #3, three months after the 18-day scan): significant clinical deterioration
- clinical status (weakness, predominantly LMN features) (patients with ALS; patient #5, one year later): slowly progressed
- symptomatic and functional changes (patients with ALS; patient #11, after 35 days of therapy): improved strength and reduced disability
